Reference: US9422297B2, “Tricyclic compounds having cytostatic and/or cytotoxic activity and methods of use thereof” (Duquesne University of the Holy Ghost, priority 2007, dated 2016)
Read-outs that look alike come from different tables or passages of the source.

Assays:
EGFR kinase = EGFR kinase (Homo sapiens (Human), UniProt P00533); experiment: EGFR kinase inhibition; assay type: biochemical
PDGFR-β kinase = PDGFR-β kinase (Homo sapiens (Human), UniProt P09619); experiment: PDGFR-β kinase inhibition; assay type: biochemical
A431 cytotoxicity assay = assay type: cell-based; settings: human, A431 cells
Flk-1 kinase = Flk-1 kinase (Homo sapiens (Human), UniProt P35968); experiment: Flk-1 kinase inhibition; assay type: biochemical; settings: Table 3
CAM angiogenesis = experiment: CAM assay, inhibition of angiogenesis; assay type: in vivo; settings: Table 3
Thymidylate synthase [1] = target: Thymidylate synthase (Homo sapiens (Human), UniProt P04818); experiment: Thymidylate synthase inhibition, human; assay type: biochemical; settings: Human TS
Thymidylate synthase [2] = target: Thymidylate synthase (Toxoplasma gondii, UniProt Q07422); experiment: Thymidylate synthase inhibition, Toxo; assay type: biochemical
VEGFR-2 kinase = VEGFR-2 kinase (Homo sapiens (Human), UniProt P35968); experiment: VEGFR-2 kinase inhibition; assay type: biochemical; settings: Table 1
Thymidylate synthase [3] = target: Thymidylate synthase (Escherichia coli (strain K12), UniProt P0A884); experiment: Thymidylate synthase inhibition, E. coli; assay type: biochemical
[4] = system: COLO-205 metastatic human colon cancer cells; experiment: COLO-205 tumors implanted in athymic mice; assay type: in vivo
[5] = Table 3, read-out: PDGFR-β kinase
[6] = athymic mice, 25 mg/kg 3× weekly

PDGFR-β kinase, sequence (P09619 33-1106): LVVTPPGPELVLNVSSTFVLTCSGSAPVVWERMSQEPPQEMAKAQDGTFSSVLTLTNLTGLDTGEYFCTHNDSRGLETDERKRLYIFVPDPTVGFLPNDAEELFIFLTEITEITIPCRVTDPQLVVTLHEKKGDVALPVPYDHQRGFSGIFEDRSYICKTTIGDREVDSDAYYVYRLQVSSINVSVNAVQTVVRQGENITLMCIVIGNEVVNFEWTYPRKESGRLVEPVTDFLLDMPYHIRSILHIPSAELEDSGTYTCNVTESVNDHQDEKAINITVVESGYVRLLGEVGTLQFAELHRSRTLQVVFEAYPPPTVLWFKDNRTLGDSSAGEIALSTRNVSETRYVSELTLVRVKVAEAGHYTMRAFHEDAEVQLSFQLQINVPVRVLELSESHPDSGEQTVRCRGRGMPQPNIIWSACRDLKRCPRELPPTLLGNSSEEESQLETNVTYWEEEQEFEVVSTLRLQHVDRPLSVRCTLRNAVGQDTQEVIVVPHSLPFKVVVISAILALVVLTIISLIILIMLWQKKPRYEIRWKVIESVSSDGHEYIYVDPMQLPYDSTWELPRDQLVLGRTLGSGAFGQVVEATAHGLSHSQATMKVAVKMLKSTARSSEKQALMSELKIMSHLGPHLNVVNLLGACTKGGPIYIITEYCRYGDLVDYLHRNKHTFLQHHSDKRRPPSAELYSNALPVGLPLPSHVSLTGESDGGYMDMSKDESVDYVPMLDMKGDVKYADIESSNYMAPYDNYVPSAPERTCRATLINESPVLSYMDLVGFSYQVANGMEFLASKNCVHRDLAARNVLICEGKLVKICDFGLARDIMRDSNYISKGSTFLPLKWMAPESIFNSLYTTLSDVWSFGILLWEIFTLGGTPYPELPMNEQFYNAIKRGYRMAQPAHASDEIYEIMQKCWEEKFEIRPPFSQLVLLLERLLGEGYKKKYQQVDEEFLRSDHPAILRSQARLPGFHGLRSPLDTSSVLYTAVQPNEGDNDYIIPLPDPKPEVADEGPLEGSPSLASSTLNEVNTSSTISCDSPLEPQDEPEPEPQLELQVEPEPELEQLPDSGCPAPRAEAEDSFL
EGFR kinase, sequence (P00533 25-1210): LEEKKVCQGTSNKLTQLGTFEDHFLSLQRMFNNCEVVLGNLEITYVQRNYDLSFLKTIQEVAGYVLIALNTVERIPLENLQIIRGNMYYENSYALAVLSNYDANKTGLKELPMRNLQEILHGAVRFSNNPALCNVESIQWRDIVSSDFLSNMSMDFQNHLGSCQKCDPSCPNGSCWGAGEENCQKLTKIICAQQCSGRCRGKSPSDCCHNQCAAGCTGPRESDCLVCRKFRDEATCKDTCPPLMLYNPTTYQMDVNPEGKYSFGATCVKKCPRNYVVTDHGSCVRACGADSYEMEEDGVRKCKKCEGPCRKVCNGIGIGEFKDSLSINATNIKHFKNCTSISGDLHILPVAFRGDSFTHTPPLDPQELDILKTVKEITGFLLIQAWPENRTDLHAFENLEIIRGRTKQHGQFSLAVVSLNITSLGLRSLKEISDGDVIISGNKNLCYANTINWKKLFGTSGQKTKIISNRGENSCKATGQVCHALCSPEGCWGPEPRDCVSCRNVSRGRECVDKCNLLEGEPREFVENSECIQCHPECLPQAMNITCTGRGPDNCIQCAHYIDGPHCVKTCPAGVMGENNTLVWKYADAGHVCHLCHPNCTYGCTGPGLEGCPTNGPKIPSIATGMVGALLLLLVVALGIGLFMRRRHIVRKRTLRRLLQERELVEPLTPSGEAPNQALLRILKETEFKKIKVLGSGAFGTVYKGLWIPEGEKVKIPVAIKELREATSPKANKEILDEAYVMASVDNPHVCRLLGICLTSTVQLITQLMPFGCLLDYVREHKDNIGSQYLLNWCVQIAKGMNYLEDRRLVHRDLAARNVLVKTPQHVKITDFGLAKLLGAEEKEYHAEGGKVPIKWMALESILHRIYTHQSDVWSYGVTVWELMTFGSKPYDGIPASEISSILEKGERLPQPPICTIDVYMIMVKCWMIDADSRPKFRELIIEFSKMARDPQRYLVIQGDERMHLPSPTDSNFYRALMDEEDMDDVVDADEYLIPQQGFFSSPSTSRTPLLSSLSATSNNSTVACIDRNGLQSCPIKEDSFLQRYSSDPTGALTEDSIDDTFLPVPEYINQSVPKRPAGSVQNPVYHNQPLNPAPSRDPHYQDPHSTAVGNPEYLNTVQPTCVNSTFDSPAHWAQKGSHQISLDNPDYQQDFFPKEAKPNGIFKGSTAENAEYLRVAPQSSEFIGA
Flk-1 kinase, sequence (P35968 20-1356): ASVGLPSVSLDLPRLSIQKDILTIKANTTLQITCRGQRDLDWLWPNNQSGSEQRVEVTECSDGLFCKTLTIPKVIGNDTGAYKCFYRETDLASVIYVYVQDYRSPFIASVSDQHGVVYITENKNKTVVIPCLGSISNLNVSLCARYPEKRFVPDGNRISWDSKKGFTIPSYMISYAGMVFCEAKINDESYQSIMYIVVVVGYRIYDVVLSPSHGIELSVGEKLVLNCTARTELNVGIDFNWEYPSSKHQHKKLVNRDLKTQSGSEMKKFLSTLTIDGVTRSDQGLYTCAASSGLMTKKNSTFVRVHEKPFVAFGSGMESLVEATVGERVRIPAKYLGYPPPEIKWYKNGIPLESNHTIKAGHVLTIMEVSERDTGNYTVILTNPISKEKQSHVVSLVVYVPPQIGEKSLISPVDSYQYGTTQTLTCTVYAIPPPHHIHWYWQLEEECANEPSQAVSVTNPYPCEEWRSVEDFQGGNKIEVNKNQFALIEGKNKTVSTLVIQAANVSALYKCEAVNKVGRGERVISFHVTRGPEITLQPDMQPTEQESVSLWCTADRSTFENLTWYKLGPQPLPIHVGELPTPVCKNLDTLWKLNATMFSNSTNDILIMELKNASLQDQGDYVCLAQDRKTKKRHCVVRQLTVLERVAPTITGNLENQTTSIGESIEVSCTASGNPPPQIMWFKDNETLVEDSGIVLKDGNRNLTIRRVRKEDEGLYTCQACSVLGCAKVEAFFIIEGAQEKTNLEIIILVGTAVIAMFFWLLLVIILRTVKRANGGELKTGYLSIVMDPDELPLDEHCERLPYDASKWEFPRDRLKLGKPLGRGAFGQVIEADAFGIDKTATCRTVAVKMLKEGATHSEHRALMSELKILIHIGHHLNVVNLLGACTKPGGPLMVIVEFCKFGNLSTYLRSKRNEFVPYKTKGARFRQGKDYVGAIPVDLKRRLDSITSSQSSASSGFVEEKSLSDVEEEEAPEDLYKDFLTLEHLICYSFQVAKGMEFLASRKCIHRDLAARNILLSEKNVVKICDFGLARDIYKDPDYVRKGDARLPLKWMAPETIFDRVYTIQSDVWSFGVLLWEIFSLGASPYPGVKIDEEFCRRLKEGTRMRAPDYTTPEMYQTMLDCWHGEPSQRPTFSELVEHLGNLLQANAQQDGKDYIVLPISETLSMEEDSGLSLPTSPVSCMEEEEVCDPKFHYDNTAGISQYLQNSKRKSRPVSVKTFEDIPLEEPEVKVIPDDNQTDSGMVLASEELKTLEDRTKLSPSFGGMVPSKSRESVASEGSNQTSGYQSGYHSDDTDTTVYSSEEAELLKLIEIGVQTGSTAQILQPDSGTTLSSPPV
Thymidylate synthase (Homo sapiens (Human), UniProt P04818), sequence (P04818 whole entry): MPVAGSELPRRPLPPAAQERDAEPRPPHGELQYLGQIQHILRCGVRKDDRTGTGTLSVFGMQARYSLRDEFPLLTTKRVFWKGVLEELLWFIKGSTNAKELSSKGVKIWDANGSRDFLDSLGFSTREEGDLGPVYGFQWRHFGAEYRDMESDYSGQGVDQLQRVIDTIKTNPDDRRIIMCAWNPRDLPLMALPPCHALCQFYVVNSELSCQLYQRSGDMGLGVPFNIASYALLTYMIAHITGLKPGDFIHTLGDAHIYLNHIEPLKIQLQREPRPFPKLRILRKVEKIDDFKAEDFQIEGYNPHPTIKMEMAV
Thymidylate synthase (Escherichia coli (strain K12), UniProt P0A884), sequence (P0A884 whole entry, looked up): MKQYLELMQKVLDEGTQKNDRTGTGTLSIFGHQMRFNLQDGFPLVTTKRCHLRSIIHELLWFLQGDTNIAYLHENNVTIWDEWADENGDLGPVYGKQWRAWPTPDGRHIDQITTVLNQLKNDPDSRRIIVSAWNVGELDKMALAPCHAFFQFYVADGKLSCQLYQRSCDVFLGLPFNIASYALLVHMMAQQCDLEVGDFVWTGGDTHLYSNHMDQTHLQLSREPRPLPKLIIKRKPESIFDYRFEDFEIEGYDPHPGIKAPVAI
VEGFR-2 kinase, sequence (P35968 20-1356): as the sequence (P35968 20-1356) above

Structure (SMILES) | IC50 (EGFR kinase; Table 3, read-out: EGFR kinase) [µM] | IC50 (PDGFR-β kinase; [5]) [µM] | IC50 (A431 cytotoxicity assay; Table 3) [µM] | IC50 (Flk-1 kinase) [µM] | other results
CC(C)c1ccc(Nc2nc(N)nc3c2-c2ccccc2C3)cc1 [AAG145-126] | 42.6 | 7.8 | 126 | 11 | 
Nc1nc2c(c(Nc3cccc(F)c3)n1)-c1ccccc1C2 [AAG145-161] | > 200 | 7.1 | 9.8 | 55.7 | 
Cc1cc(C)c(/C=C2\C(=O)Nc3ccccc32)[nH]1 [SU5416, reference compound] |  |  | […] |  | IC50 (CAM angiogenesis): 0.032 ± 0.005 µM
Cc1ccc(Sc2cccc3[nH]c4nc(N)nc(N)c4c23)cc1 [AAG-148-311, 5-[(4-methylphenyl)thio]-9H-pyrimido[4,5-b]indole-2,4-diamine] |  |  |  |  | IC50 (Thymidylate synthase [1]): 0.39 µM; IC50 (Thymidylate synthase [2]): 0.18 µM
Nc1nc2c(c(Nc3ccc(F)c(Cl)c3)n1)-c1ccccc1C2 [AAG145-164] | > 200 | 6.4 | 158 | 72.9 | 
Nc1nc2c(c(Nc3ccc(Cl)cc3F)n1)-c1ccccc1C2 [AAG145-135] | 11.7 |  | 9.7 | 197 | 
Nc1nc(N)c2c(n1)[nH]c1cccc(Sc3ccccc3)c12 [AAG-148-43, 5-(phenylthio)-9H-pyrimido[4,5-b]indole-2,4-diamine] |  |  |  |  | IC50 (EGFR kinase; Table 1, read-out: EGFR kinase inhibition): 15.1 µM; IC50 (VEGFR-2 kinase): 22.6 µM; IC50 (PDGFR-β kinase; Table 1, read-out: PDGFR-β kinase inhibition): 2.8 µM; IC50 (A431 cytotoxicity assay; Table 1): 49.2 µM; IC50 (Thymidylate synthase [1]): 0.54 µM; IC50 (Thymidylate synthase [3]): > 27 µM; metastasis to the liver of COLO-205 cells [4, 6]: significantly reduced metastasis to the liver; vascularity of COLO-205 primary tumors [4, 6]: reduced vascularity much better than DMBI; primary tumor growth of COLO-205 ([4]; athymic mice, 25 mg/kg three times a week): significantly reduced the growth; apparent toxicity (loss in weight of the animals) ([4]; mice, 25 mg/kg three times weekly): no apparent toxicity
Nc1nc2c(c(Nc3ccccc3)n1)-c1ccccc1C2 [AAG145-158] | > 200 | 43.1 | 4.9 | 171 | 
Nc1nc2c(c(Nc3cccc(Br)c3)n1)-c1ccccc1C2 [AAG145-131] | 24.1 | 126 | > 5000 | > 200 | 
Nc1nc2[nH]cc(CCc3ccc(C(=O)N[C@@H](CCC(=O)O)C(=O)O)cc3)c2c(=O)[nH]1 [Pemetrexed, reference compound] |  |  |  |  | IC50 (Thymidylate synthase [1]): 29 µM; IC50 (Thymidylate synthase [3]; E. coli TS, read-out: Thymidylate synthase inhibition E. coli): 15 µM
Nc1nc2c(c(Nc3cccc(Cl)c3)n1)-c1ccccc1C2 [AAG145-157] | 19.6 | > 500 | 235 | 134 | 
COc1cccc(Nc2nc(N)nc3c2-c2ccccc2C3)c1 [AAG145-159] | > 200 | 75.5 | 13.9 | 43 | 
CC(C)c1ccccc1Nc1nc(N)nc2c1-c1ccccc1C2 [AAG145-124] | > 200 | 21.7 | 126 | > 200 | 
